Assay results as given in patent publication US11458123B2 (Arvinas, Inc., priority 2016, dated 2022).

tested on: tau protein; assay: Tau protein in vitro degradation assay (Western blot, Tau-13 antibody); assay type: cell-based, human; conditions: SK-N-SH cells; 72 hours of incubation; tested at 300 nM, 100 nM, 33 nM and 11 nM; Western blot, Tau-13 antibody
Outline: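 Tau degradation read by Tau-13 Western blot (detects all human tau forms) of SDS-PAGE-resolved lysates from SK-N-SH cells. Cells were plated at least 18 h before 72 h exposure to PROTACs at either 1000/300/100 nM or 300/100/33/11 nM.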

Row | Structure (SMILES) | Degradation activity* (highest amount of degradation observed at any dosage; tau protein remaining)
1 | O=C1CCC(N2C(=O)c3ccc(OCCOCCOCCOCCOCCOc4ccc(-c5ccc6c(c5)[nH]c5ccncc56)cn4)cc3C2=O)C(=O)N1 (centres unmarked) [Compound 51, 5-((14-((5-(5H-pyrido[4,3-b]indol-7-yl)pyridin-2-yl)oxy)-3,6,9,12-tetraoxatetradecyl)oxy)-2-(2,6-dioxopiperidin-3-yl)isoindoline-1,3-dione] | A (≤50% tau protein remaining after 72 hours of incubation with the test compound)
2 | O=C1CCC(N2C(=O)c3ccc(OCCCCCN4CCN(CCOCCCc5ccc(-c6ccc7c(c6)[nH]c6ccncc67)cn5)CC4)cc3C2=O)C(=O)N1 (centres unmarked) [Compound 52, 5-((5-(4-(2-(3-(5-(5H-pyrido[4,3-b]indol-7-yl)pyridin-2-yl)propoxy)ethyl)piperazin-1-yl)pentyl)oxy)-2-(2,6-dioxopiperidin-3-yl)isoindoline-1,3-dione] | C (>80% tau protein remaining after 72 hours of incubation with the test compound)

same assay, conditions: SK-N-SH cells; 72 hours of incubation; tested at 1000 nM, 300 nM and 100 nM

Row | Structure (SMILES) | Activity* (highest amount of degradation observed at any dosage, as tau protein remaining)
3 | Cc1ncsc1-c1ccc([C@H](C)NC(=O)[C@@H]2C[C@@H](O)CN2C(=O)[C@@H](NC(=O)COCCOCCOCCOCCCOc2ccc3nc(-c4ccc(N(C)C)cc4)ccc3c2)C(C)(C)C)cc1 [Compound 39, (2S,4R)-1-((S)-2-tert-butyl-18-(2-(4-(dimethylamino)phenyl)quinolin-6-yloxy)-4-oxo-6,9,12,15-tetraoxa-3-azaoctadecane)-4-hydroxy-N—((S)-1-(4-(4-methylthiazol-5-yl)phenyl)ethyl)pyrrolidine-2-carboxamide] | C (>80% tau protein remaining after 72 hours of incubation with the test compound)
4 | CN(C)c1ccc(-c2ccc3cc(OCCCOCCOCCOCCOCCNc4cccc5c4C(=O)N(C4CCC(=O)NC4=O)C5=O)ccc3n2)cc1 (centres unmarked) [Compound 40, 4-(15-(2-(4-(dimethylamino)phenyl)quinolin-6-yloxy)-3,6,9,12-tetraoxapentadecylamino)-2-(2,6-dioxopiperidin-3-yl)isoindoline-1,3-dione] | C (>80% tau protein remaining after 72 hours of incubation with the test compound)
5 | O=C1CCC(N2C(=O)c3cccc(NCCOCCOCCOCC(=O)N4CCN(c5ccn6c(n5)nc5ccccc56)CC4)c3C2=O)C(=O)N1 (centres unmarked) [Compound 41, 4-((2-(2-(2-(2-(4-(benzo[4,5]imidazo[1,2-a]pyrimidin-2-yl)piperazin-1-yl)-2-oxoethoxy)ethoxy)ethoxy)ethyl)amino)-2-(2,6-dioxopiperidin-3-yl)isoindoline-1,3-dione] | C (>80% tau protein remaining after 72 hours of incubation with the test compound)
6 | O=C1CCC(N2C(=O)c3cccc(NCCOCCOCCOCCOCC(=O)N4CCN(c5ccn6c(n5)nc5ccccc56)CC4)c3C2=O)C(=O)N1 (centres unmarked) [Compound 42, 4-((14-(4-(benzo[4,5]imidazo[1,2-a]pyrimidin-2-yl)piperazin-1-yl)-14-oxo-3,6,9,12-tetraoxatetradecyl)amino)-2-(2,6-dioxopiperidin-3-yl)isoindoline-1,3-dione] | C (>80% tau protein remaining after 72 hours of incubation with the test compound)
7 | Cc1ncsc1-c1ccc(CNC(=O)[C@@H]2C[C@@H](O)CN2C(=O)[C@@H](NC(=O)COCCOCCOCC(O)COc2ccc3nc(-c4ccc(N(C)C)cc4)ccc3c2)C(C)(C)C)cc1 (stereo partly drawn) [Compound 43, (2S,4R)-1-((2S)-2-(tert-butyl)-15-((2-(4-(dimethylamino)phenyl)quinolin-6-yl)oxy)-14-hydroxy-4-oxo-6,9,12-trioxa-3-azapentadecanoyl)-4-hydroxy-N-(4-(4-methylthiazol-5-yl)benzyl)pyrrolidine-2-carboxamide] | C (>80% tau protein remaining after 72 hours of incubation with the test compound)
8 | CN(C)c1ccc(-c2ccc3cc(OCCCOCCOCCOCCNc4cccc5c4C(=O)N(C4CCC(=O)NC4=O)C5=O)ccc3n2)cc1 (centres unmarked) [Compound 44, 4-(2-(2-(2-(3-(2-(4-(dimethylamino)phenyl)quinolin-6-yloxy)propoxy)ethoxy)ethoxy)ethylamino)-2-(2,6-dioxopiperidin-3-yl)isoindoline-1,3-dione] | C (>80% tau protein remaining after 72 hours of incubation with the test compound)
9 | CN(C)c1ccc(-c2ccc3cc(OCC(O)COCCOCCOCCOCCNc4cccc5c4C(=O)N(C4CCC(=O)NC4=O)C5=O)ccc3n2)cc1 (centres unmarked) [Compound 45, 4-(15-(2-(4-(dimethylamino)phenyl)quinolin-6-yloxy)-14-hydroxy-3,6,9,12-tetraoxapentadecylamino)-2-(2,6-dioxopiperidin-3-yl)isoindoline-1,3-dione] | C (>80% tau protein remaining after 72 hours of incubation with the test compound)
10 | Cc1ncsc1-c1ccc(CNC(=O)[C@@H]2C[C@@H](O)CN2C(=O)[C@@H](NC(=O)COCCOCCOCCOCC(O)COc2ccc3nc(-c4ccc(N(C)C)cc4)ccc3c2)C(C)(C)C)cc1 (stereo partly drawn) [Compound 46, (2S,4R)-1-((2S)-2-tert-butyl-18-(2-(4-(dimethylamino)phenyl)quinolin-6-yloxy)-17-hydroxy-4-oxo-6,9,12,15-tetraoxa-3-azaoctadecane)-4-hydroxy-N-(4-(4-methylthiazol-5-yl)benzyl)pyrrolidine-2-carboxamide] | C (>80% tau protein remaining after 72 hours of incubation with the test compound)
11 | CN(C)c1ccc(-c2ccc3cc(OCC(O)COCCOCCOCCNc4cccc5c4C(=O)N(C4CCC(=O)NC4=O)C5=O)ccc3n2)cc1 (centres unmarked) [Compound 47, 4-(2-(2-(2-(3-(2-(4-(dimethylamino)phenyl)quinolin-6-yloxy)-2-hydroxypropoxy)ethoxy)ethoxy)ethylamino)-2-(2,6-dioxopiperidin-3-yl)isodoline-1,3-dione] | C (>80% tau protein remaining after 72 hours of incubation with the test compound)
12 | Cn1c2ccncc2c2ccc(-c3ccc(OCCOCCOCCOCCOCCNc4cccc5c4C(=O)N(C4CCC(=O)NC4=O)C5=O)nc3)cc21 (centres unmarked) [Compound 48, 2-(2,6-dioxopiperidin-3-yl)-4-(14-(5-(5-methyl-5H-pyrido[4,3-b]indol-7-yl)pyridin-2-yloxy)-3,6,9,12-tetraoxatetradecylamino)isoindoline-1,3-dione] | A (≤50% tau protein remaining after 72 hours of incubation with the test compound)
13 | O=C1CCC(N2Cc3c(NCCOCCOCCOCCOCCOc4ccc(-c5ccc6c(c5)[nH]c5ccncc56)cn4)cccc3C2=O)C(=O)N1 (centres unmarked) [Compound 49, 3-(4-((14-((5-(5H-pyrido[4,3-b]indol-7-yl)pyridin-2-yl)oxy)-3,6,9,12-tetraoxatetradecyl)amino)-1-oxoisoindolin-2-yl)piperidine-2,6-dione] | A (≤50% tau protein remaining after 72 hours of incubation with the test compound)
14 | O=C1CCC(N2Cc3c(OCCOCCOCCOCCOCCOc4ccc(-c5ccc6c(c5)[nH]c5ccncc56)cn4)cccc3C2=O)C(=O)N1 (centres unmarked) [Compound 50, 3-(4-(14-(5-(5H-pyrido[4,3-b]indol-7-yl)pyridin-2-yloxy)-3,6,9,12-tetraoxatetradecyloxy)-1-oxoisoindolin-2-yl)piperidine-2,6-dione] | A (≤50% tau protein remaining after 72 hours of incubation with the test compound)
